Test results: publication PMC10145360, “Antiplatelet Aggregation Properties of Cirsilineol: A Novel Inhibitor of Blood Coagulation Factor Xa” (Pharmaceuticals, 2023)

Key:
[1] = tested on: FeCl3-induced carotid artery thrombosis; test: FeCl3-induced carotid artery thrombosis model; type: in vivo, mouse; conditions: mice
Protocol: A mouse model of FeCl3-induced thrombosis was created and used. Male C57BL/6 mice were starved for the entire night before receiving intravenous injections of the relevant drug in 0.2 mL of DMSO and were allowed to sleep. The carotid artery of the animal was exposed. The adventitial surface was covered with a cotton thread (200 μm in diameter) soaked in FeCl3 solution (0.25 M) for 5 min. The wound was flushed with saline solution once the thread had been removed. […] We measured the size and rate of thrombus formation, and we graded our results as follows: no thrombus or small thrombus (75–50 μm), medium thrombus (150–100 μm), massive thrombus (300–200 μm), and more than three thrombi. It was also noted how long it took for an extensive thrombus to obstruct the carotid artery following endothelial damage caused by FeCl3.

Plasmin = biological target: T1, Plasmin (Homo sapiens, UniProt P00747); test: Inhibitory constant, chromogenic substrate assay; type: biochemical
T1 construct: S-2251 for plasmin; purchased Haematologic Technologies (Essex Junction, VT, USA)
Protocol: (§1) Ki values were calculated based on chromogenic substrate experiments. CSL was employed in each assay at a minimum of seven concentrations in duplicate to obtain an inhibition curve. A total of 50 μL of substrate was combined with 25 μL of each chemical solution, inhibitor solution, or blank buffer. Before the plate was allocated into the Labsystems IEMS microtiter plate reader (Cergy Pontoise, France), 25 μL of the enzyme solution was mixed. The plate was allowed for 1 h at 37 °C before analysis. We continuously observed the formation of p-nitroaniline produced when the substrate was hydrolyzed using spectrophotometry at 405 nm. The maximum initial reaction rates were computed as the millioptical density per minute. A Dixon plot of 1/Vmax versus inhibitor concentration was used to fit the curve and determine the Ki values.

Protein Ca = biological target: T2, Protein Ca (Homo sapiens, UniProt P04070); test: Inhibitory constant, chromogenic substrate assay; type: biochemical
T2 construct: purchased Haematologic Technologies (Essex Junction, VT, USA)
Protocol: as §1

tPA = biological target: T3, tPA (Homo sapiens, UniProt P00750); test: Inhibitory constant, chromogenic substrate assay; type: biochemical
T3 construct: purchased Haematologic Technologies (Essex Junction, VT, USA)
Protocol: as §1

α-Thrombin = biological target: T4, α-Thrombin (Homo sapiens, UniProt P00734); test: Inhibitory constant, chromogenic substrate assay; type: biochemical
T4 construct: α-Thrombin; purchased Haematologic Technologies (Essex Junction, VT, USA)
Protocol: as §1

[2] = tested on: FX activation by FVIIa on HUVECs; test: Production of FXa on the surface of TNF-α-stimulated HUVECs; type: cell-based, human; conditions: pre-incubation 10 min
Protocol: Figure 5 Effects of CSL on the catalytic activity and production of FXa. […] Plots show the average values of five independent measurements. (B) HUVECs pre-incubated with the indicated concentrations of CSL for 10 min were stimulated with TNF-α (10 ng/mL) for 6 h and incubated with FX (175 nM) and FVIIa (10 nM) with/without anti-tissue factor antibody (25 µg/mL). The production of FXa was characterized as described in the Methods section. (C) PRP was preincubated for 5 min with different concentrations of CSL, Riva, or the vehicle. Platelet aggregation was initiated with FXa (52 µg/mL), and the platelet aggregation was recorded using an aggregometer. Data are shown as mean values ± SD of five independent experiments. * p < 0.05 vs. TNF-α alone (B) or FXa (C). D = 0.2% DMSO, used as the vehicle control.
Confluent HUVEC monolayers developed on 96-well culture plates that were stimulated with TNF-α (10 ng/mL) for 6 h after exposure to the relevant CSL concentration for 10 min. […] The reaction was stopped by adding buffer A supplemented with 10 mM EDTA, and the amount of FXa produced was determined by adding S-2765. Spectrophotometric monitoring of the absorbance over a 2 min period was performed at 405 nm. […]

T2 sequence (P04070 212-450 limits assumed): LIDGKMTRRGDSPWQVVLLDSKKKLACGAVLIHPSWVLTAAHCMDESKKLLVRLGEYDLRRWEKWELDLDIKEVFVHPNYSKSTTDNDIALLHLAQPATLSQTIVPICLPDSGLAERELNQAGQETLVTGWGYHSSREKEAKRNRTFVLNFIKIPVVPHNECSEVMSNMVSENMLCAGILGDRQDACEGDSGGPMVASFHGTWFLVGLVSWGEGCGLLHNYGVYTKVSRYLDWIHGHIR
T2 sequence (P04070 43-197 partner limits assumed): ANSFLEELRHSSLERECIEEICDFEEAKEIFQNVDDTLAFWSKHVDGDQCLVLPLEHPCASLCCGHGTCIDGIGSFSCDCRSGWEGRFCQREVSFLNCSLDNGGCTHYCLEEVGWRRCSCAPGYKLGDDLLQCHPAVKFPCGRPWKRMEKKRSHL
T3 sequence (P00750 36-562): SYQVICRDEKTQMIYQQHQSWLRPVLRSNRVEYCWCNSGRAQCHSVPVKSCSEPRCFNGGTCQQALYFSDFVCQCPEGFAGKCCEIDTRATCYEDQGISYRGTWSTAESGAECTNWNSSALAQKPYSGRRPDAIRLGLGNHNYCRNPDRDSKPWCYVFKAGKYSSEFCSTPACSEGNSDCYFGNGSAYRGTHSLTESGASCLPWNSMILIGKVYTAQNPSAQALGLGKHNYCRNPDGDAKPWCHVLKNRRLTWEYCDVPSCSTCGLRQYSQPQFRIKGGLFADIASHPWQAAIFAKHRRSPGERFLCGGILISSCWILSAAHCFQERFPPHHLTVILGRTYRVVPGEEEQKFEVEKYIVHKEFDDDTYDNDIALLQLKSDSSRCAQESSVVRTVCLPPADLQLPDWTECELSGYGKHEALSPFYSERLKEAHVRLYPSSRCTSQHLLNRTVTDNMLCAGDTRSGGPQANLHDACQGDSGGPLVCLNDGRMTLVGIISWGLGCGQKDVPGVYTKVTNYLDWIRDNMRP
T1 sequence (P00747 581-810 limits assumed): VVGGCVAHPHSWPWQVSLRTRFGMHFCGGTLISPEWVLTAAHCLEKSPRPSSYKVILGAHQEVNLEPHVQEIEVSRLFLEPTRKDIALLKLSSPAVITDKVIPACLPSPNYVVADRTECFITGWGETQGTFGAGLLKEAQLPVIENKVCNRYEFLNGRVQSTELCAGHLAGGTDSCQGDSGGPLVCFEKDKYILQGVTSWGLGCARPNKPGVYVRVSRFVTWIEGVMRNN
T1 sequence (P00747 97-580 partner limits assumed): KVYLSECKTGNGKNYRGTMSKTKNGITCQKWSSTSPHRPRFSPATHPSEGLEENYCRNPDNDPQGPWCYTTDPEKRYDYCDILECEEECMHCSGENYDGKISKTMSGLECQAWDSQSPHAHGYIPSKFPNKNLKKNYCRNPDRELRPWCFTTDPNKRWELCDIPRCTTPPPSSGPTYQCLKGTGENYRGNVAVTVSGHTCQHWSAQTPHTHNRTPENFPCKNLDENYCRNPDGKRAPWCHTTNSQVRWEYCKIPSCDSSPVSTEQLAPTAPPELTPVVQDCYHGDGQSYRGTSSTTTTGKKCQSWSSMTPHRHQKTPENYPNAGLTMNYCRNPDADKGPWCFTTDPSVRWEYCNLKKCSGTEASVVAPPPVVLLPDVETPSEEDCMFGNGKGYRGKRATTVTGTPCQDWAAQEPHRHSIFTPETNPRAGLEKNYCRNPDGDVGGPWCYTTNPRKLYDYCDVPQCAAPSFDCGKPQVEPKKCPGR

COc1cc(-c2cc(=O)c3c(O)c(OC)c(OC)cc3o2)ccc1O [CSL, 4,5-dihydroxy-3,6,7-trimethoxyflavone]
Scored thrombus formation ([1]; 0.13 mg/kg intravenous): 3.7 ± 0.2 | Time to Large Thrombus Formation ([1]; 0.13 mg/kg intravenous): 13.1 ± 1.1 min | Scored thrombus formation ([1]; 0.26 mg/kg intravenous): 2.7 ± 0.1 | Time to Large Thrombus Formation ([1]; 0.26 mg/kg intravenous): 27.2 ± 2.1 min | Scored thrombus formation ([1]; 0.51 mg/kg intravenous): 1.8 ± 0.1 | Time to Large Thrombus Formation ([1]; 0.51 mg/kg intravenous): 51.4 ± 3.1 min | Ki (Plasmin): > 300 µM | Ratio = Ki enzyme/Ki Factor Xa (Plasmin): >100 | Ki (Protein Ca): > 300 µM | Ratio = Ki enzyme/Ki Factor Xa (Protein Ca): >100 | Ki (tPA): > 300 µM | Ratio = Ki enzyme/Ki Factor Xa (tPA): >100 | Ki (α-Thrombin): > 300 µM | Ratio = Ki enzyme/Ki Factor Xa (α-Thrombin): >100 | FX activation by FVIIa [2]: inhibited FX activation in a concentration-dependent manner
